Results: patent publication US20040014946A1, “Protein interaction method and composition” (priority 2002, published 2004)

Tested on: AbI Protein Tyrosine Kinase
Experiment: On-chip phosphorylation inhibition screening assay (biofunction chip, MALDI MS)
Type: biochemical
Conditions: 250 nM substrate, 23° C.
Description: FIG. 8 illustrates a biofunction chip with enzymatic functions. The reaction components consisted of 0.4U/well of AbI at pH 7.5, 0.1 mM ATP, and 400 nM substrate. 4 μl were added per well, and the reaction was incubated at 23° C. for 90 minutes. On-chip phosphorylation in rabbit reticulocyte extract with various substrate concentrations (0, 10, 30, 100, and 300 nM) is shown in FIG. 10. Reproducibility of the spectra in the same scale and in different scales normalized to the phosphorylated peaks are shown in FIG. 13. The percent phosphorylation is determined over time for 1 Unit of substrate per well versus 0.12 Unit substrate per well.
Screening assays for ATP analogs or substrate analogs capable of inhibiting phosphorylation were also tested. […] 250 nM substrate, 5 μM ATP, 20 U/well AbI TK, and 0, 4, 8, 12, 16, and 20 μM ATTP were incubated at 23° C. for 60 minutes. […] 250 nM substrate, 5 μM ATP, 20 U/well AbI TK, and 0, 5, 10, 15 and 40 μM Genistein were incubated at 23° C. for 60 minutes. […] 250 nM substrate, 100 μM ATP, 0.4 Units/well AbI TK, and 0, 1, 2, 4, 8, and 12 μM Erbstain were incubated at 23° C. for 60 minutes.
The components of biofunction chips are useful for kinase studies, histone acetylation, DNA methylation and protease studies. […]

| SMILES | inhibition of phosphorylation (5 μM ATP, 20 U/well AbI TK, 0, 5, 10, 15 and 40 μM Genistein, 60 minutes (FIG. 15)) | inhibition of phosphorylation (100 μM ATP, 0.4 Units/well AbI TK, 0, 1, 2, 4, 8 and 12 μM Erbstain, 60 minutes (FIG. 16)) |
| --- | --- | --- |
| O=c1c(-c2ccc(O)cc2)coc2cc(O)cc(O)c12 [Genistein] | inhibition of phosphorylation | – |
| O=CN/C=C/c1cc(O)ccc1O [Erbstain] | – | inhibition of phosphorylation |
